Assay results: patent US10227369B2, “Short-chain fatty acid hexosamine analogs and their use in tissue engineering applications” (THE JOHNS HOPKINS UNIVERSITY, priority 2013, dated 2019)
Entries after “also recorded” stand apart in the source; their conditions may differ.

Legend:
[1] = test system: unstimulated chondrocytes; test: Unstimulated (no IL-1β) chondrocytes in 3D PEGDA hydrogels: biochemical analysis and histology; assay type: cell-based, bovine
Description: (§1) Cell Isolation and Culturing. Bovine chondrocytes were isolated from 4- to 8-week-old calves (Research 87, Inc., Boylston, Mass.), as previously described. Briefly, cartilage was dissected from the femoral patellar groove and condyles and minced into approximately 1 mm^2 pieces. Cells were isolated from the tissue by digesting overnight at 37° C. with 2 mg/ml type II collagenase (Worthington Biochemical Corp., Lakewood, N.J.), 5% fetal bovine serum (FBS), 100 U/ml penicillin and 100 μg/ml streptomycin on an orbital shaker. The cell suspension was passed through a 70 μm cell strainer, followed by centrifugation. Cells were washed 3 times using sterile phosphate buffered saline (PBS). Chondrocyte medium was composed of high glucose Dulbecco's Modified Eagle's Medium (DMEM) supplemented with 10 mM HEPES, 0.4 mM L-proline, 50 μg/ml ascorbic acid, 10% (v/v) fetal bovine serum (FBS; Hyclone Laboratories, Inc., Logan, Utah), 0.1 mM non-essential amino acids, 100 U/ml penicillin and 100 μg/ml streptomycin.
(§2) Photoencapsulation in Poly(Ethylene Glycol)-Diacrylate (PEGDA) Hydrogels and Construct Culturing. For all 3D culture experiments, cells were photoencapsulated in PEGDA hydrogels, as previously described. Briefly, 100 mg PEGDA (3.4 kDa, SunBio, Anyang City, South Korea) was dissolved in 1 ml sterile PBS. A photoinitiator solution of Irgacure® 2959 (CIBA Specialty Chemicals) was prepared by dissolving 100 mg of Irgacure® 2959 in 1 ml 70% ethanol. Five microliters of the Irgacure® 2959 solution was added to 1 ml of PEGDA solution. Cells were suspended in the hydrogel precursor solution at a density of 20 million cells/ml and polymerized in sterile molds. A high cell density was chosen as it has been shown. Based on our previous studies a high cell density was chosen to best to support a cell phenotype and differentiation and cell phenotype. Polymerization was carried out using UV light (365 nm, 3.2 mW/cm^2) exposure for 5 minutes.
(§3) Biochemical Analysis. The constructs (n=3 for chondrocyte experiments and n=4 for chondrogenic experiments) were lyophilized for 48 hours and the dry weights measured. Constructs were then homogenized in 125 μg/ml papainase (Worthington Biochemical Corp., Lakewood, N.J.) and digested for 16 hours at 60° C. Quantification of DNA content was carried out using a Hoescht Dye 33342 DNA assay. Calf thymus DNA was used to generate standard curves. Quantification of sulfated glycosaminoglycans (sGAG), a molecule found in cartilage ECM, was carried out using a 1,9-dimethylmethylene blue (DMMB) dye assay; chondroitin sulfate was used to generate standard curves. Quantification of collagen was carried out via measuring hydroxyproline content after hydrolyzing in 6 N HCl overnight at 120° C. The reaction of hydroxyproline with chloramine-T and p-dimethylaminobenzaldehyde was performed as a measure of total collagen content; hydroxyproline was used to generate standard curves.
(§4) Histology and Immunohistochemistry. Constructs were fixed in 10% formalin or 4% paraformaldehyde followed by dehydration in increasing concentrations of ethanol, embedded in paraffin and sliced into 5 μm sections. After paraffin removal and subsequent rehydration, sections were stained for proteoglycans using Safranin-O and fast green or prepared for immunohistochemistry. For immunohistochemical staining of type II collagen, endogenous peroxidase was quenched using 3% (v/v) hydrogen peroxide in methanol. Sections were then incubated at 37° C. with 2.5% (w/v) hyaluronidase and stained using a Histostain-SP Kit (AEC, Broad Spectrum) (Life Technologies, Grand Island, N.Y.) following the manufacturer's instructions. Primary antibody for type II collagen (Fitzgerald Industries International, Acton, Mass.) was used at a dilution of 1:100 in 1% (w/v) BSA dissolved in PBS.

[2] = test system: IL-1β-stimulated chondrocytes; test: IL-1β-stimulated chondrocytes in 3D PEGDA hydrogels: biochemical analysis (DNA, sGAG, collagen), histology, immunohistochemistry; assay type: cell-based, bovine; conditions: 10 ng/ml IL-1β
Description: as §1, §2
For chondrocyte experiments, the cell-laden hydrogels were cultured in chondrocyte medium supplemented with 10 ng/ml IL-1β for 3 days. Following the initial 3 days, constructs were cultured with medium containing specific concentrations of hexosamine analog with 10 ng/ml IL-1β for an additional 21 days. The medium was changed 3 times per week.
as §3
as §4, with “Primary antibody for type II collagen (Fitzgerald Industries International, Acton, Mass.) was used at a dilution of 1:100 in 1% (w/v) BSA dissolved in PBS.” left out

[3] = across the concentrations evaluated

Row | Compound | DNA content of cell-laden hydrogels (cell viability) ([1]; 21 days exposure) | sGAG deposition normalized to DNA [1, 3] | total collagen deposition normalized to DNA [1, 3] | DNA content of cell-laden hydrogels (cell viability) ([2]; 21 days exposure, up to 150 μM) | sGAG accumulation normalized to DNA ([2]; 21 days, across the concentrations evaluated) | total collagen deposition normalized to DNA [2, 3] | proteoglycan deposition (Safranin-O staining) ([2]; 21 days, at 150 μM) | sGAG accumulation normalized to DNA ([2]; 21 days, at 150 μM)
1 | CCCC(=O)OC1OC(CO)[C@@H](OC(=O)CCC)[C@H](OC(=O)CCC)C1NC(C)=O (some centres unmarked) [1,3,4-O-Bu3GlcNAc, reference compound] | no statistical differences | did not alter; also recorded: no statistical differences | did not alter; also recorded: no statistical differences | no statistical differences | did not alter; also recorded: no statistical differences | did not alter; also recorded: no statistical differences | – | –
2 | CCCC(=O)OC[C@H]1OC(O)[C@@H](NC(C)=O)[C@@H](OC(=O)CCC)[C@@H]1OC(=O)CCC (some centres unmarked) [ManNAc-a, 3,4,6-O-Bu3ManNAc] | – | – | – | – | – | – | further increase | further increase
